The numbers were not newly measured in patent US20050255458A1, “Drug discovery assays based on the biology of chronic disease” (priority 2002, published 2005), which cites them from elsewhere.

Where two headings read alike, the source gives them in different places.

For one series, the system named is c-Rel/p65. The conditions noted are these: cited from earlier work.
Series [1] deals with TF. The conditions noted are these: cited from earlier work.
Series [2] concerns TF. As to conditions: 0.5 mg/kg/day, cited from earlier work.
Series [3] relates to TF. The conditions noted are these: cited from earlier work. The source holds these as a separate data set.
Series [4] has as its system leukocytes. As to conditions: low concentrations, 20 hours; cited from earlier work.
For the next series, the system named is human lymphocytes. The conditions noted are these: 0.1 and 1 mM; cited from earlier work.
In series [5] the test system is leukocytes. The conditions noted are these: 5-20 mg/kg/day, oral; cited from earlier work.
The next series concerns LDLR(−/−) mice. The conditions noted are these: ≈5 mg/kg/day, 18 weeks; cited from earlier work.
In series [6] the test system is NF-κB. As to conditions: rabbit, in vivo; cited from earlier work.
Another series has as its system TF antigen. The conditions noted are these: cited from earlier work.
The target in series [7] is T1, ACE (Mus musculus, UniProt P09470).
T1 sequence (P09470 35-1312): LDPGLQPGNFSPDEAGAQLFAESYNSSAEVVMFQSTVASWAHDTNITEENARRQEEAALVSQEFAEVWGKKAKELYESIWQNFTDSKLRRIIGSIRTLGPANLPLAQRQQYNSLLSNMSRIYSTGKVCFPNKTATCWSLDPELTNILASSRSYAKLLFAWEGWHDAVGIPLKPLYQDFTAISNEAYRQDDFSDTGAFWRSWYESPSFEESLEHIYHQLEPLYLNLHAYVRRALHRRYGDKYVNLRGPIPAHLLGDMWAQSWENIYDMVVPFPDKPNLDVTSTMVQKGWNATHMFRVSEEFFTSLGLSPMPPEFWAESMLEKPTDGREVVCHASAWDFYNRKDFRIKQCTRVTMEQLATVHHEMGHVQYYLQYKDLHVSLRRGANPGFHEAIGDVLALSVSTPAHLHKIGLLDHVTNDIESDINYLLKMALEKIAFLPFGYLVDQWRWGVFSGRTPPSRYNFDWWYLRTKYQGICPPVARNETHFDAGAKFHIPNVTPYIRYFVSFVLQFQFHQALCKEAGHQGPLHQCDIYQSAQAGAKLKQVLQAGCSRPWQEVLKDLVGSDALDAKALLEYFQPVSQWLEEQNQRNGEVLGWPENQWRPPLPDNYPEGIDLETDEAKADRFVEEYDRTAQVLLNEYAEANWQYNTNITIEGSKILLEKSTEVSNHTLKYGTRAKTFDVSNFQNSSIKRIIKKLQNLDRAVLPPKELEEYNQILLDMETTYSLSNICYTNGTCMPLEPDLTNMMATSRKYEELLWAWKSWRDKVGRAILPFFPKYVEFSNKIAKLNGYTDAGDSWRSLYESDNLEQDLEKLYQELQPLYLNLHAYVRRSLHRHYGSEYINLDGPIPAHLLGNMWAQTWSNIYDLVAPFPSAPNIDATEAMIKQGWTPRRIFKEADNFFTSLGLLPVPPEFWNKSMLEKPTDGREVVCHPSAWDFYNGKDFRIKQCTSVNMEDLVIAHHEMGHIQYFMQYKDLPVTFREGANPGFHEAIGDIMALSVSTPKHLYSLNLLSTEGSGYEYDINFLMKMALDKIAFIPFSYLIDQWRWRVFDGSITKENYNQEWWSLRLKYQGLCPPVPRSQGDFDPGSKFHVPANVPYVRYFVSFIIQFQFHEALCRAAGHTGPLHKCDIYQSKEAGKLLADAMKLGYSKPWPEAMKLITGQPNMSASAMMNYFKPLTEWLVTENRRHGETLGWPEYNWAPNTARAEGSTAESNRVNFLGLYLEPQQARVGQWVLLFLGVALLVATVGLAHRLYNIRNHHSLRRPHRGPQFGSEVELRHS
As to conditions: zofenopril 0.05 or 1, captopril 5, enalapril 0.5 mg/kg/day; 29 weeks; cited from earlier work.

Series [8] concerns the target T2, ACE (Homo sapiens, UniProt P12821). On the set-up: randomly assigned 9,297 high-risk patients; from tissue; host or cells: patients, in vivo. As to conditions: 5 mg/day, vs placebo; cited from earlier work.
For series [9], the system named is Moloney murine leukemia virus (MMuLV). The conditions noted are these: cited from earlier work.
The subject of the next series is Rous sarcoma virus (RSV). The conditions noted are these: cited from earlier work.
Series [10] relates to apoE(−/−) mice. As to conditions: ramipril 1 mg/kg/day, 10 weeks; cited from earlier work.
Series [11] concerns the target T2, ACE. Also noted: from tissue; host or cells: patients, in vivo. The conditions noted are these: 5 or 10 mg/day, 4 years, vs placebo; cited from earlier work.
The target of series [12] is T2, ACE. On the set-up: randomly assigned 9,297 high-risk patients; from tissue; host or cells: patients, in vivo. The conditions noted are these: cited from earlier work.
Series [13] addresses T2, ACE. Also noted: randomly assigned 9,297 high-risk patients; from tissue; host or cells: patients, in vivo. The conditions noted are these: cited from earlier work. This is another data set of the same source.
The subject of a further series is TF mRNA. The conditions noted are these: obese mice, 10 to 20 weeks of age; cited from earlier work.
Series [14] deals with NF-κB. As to conditions: cited from earlier work.
Series [15] relates to TF. The conditions noted are these: in vitro treatment; cited from earlier work.
A further series relates to neutrophils. As to conditions: cited from earlier work.
Series [16] concerns apoE(−/−) mice. The conditions noted are these: 500 or 1,000 ng/min/kg, 1 month; cited from earlier work.
Series [17] relates to apolipoprotein E deficient mice. As to conditions: 0.1 ml of 10^−7M per mouse, intraperitoneally, once a day for 30 days; cited from earlier work.
For series [18], the system named is NF-κB. As to conditions: cited from earlier work. This is another data set of the same source.
The next series has as its system DC. As to conditions: inhaled; cited from earlier work.
For series [19], the system named is ‘Langerhans’ cells in nasal mucosa. The conditions noted are these: topical; cited from earlier work.

T2 sequence (P12821 30-1306): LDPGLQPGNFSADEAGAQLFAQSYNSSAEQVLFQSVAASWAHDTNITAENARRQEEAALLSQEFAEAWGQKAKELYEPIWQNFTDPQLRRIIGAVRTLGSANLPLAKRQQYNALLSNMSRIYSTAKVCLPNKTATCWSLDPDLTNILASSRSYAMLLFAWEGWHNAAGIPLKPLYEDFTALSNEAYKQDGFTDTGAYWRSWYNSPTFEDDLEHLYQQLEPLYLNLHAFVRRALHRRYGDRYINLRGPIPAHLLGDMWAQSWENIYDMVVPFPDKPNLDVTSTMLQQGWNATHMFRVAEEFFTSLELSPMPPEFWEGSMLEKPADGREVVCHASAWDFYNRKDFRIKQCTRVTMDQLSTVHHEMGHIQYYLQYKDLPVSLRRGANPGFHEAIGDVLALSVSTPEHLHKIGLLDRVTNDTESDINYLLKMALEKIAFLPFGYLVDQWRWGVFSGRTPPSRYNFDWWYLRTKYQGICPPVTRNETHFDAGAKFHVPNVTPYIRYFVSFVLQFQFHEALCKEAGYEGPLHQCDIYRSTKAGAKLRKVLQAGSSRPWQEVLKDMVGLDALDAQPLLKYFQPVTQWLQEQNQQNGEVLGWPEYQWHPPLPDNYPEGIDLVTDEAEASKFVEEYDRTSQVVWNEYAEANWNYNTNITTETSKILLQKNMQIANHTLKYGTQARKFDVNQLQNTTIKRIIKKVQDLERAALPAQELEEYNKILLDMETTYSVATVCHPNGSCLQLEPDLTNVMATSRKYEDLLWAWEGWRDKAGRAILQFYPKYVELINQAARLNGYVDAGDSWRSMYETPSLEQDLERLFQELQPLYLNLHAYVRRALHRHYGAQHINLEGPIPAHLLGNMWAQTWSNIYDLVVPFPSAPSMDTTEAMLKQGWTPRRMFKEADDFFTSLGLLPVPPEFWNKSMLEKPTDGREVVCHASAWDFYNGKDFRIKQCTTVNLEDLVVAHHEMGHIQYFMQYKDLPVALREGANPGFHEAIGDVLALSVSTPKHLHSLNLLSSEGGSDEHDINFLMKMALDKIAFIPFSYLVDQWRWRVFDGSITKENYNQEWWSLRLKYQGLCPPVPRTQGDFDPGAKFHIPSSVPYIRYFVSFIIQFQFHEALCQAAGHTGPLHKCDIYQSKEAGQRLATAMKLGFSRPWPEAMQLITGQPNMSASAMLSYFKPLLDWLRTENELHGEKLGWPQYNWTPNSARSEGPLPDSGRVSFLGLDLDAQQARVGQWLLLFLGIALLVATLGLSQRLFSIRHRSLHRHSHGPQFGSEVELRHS

In the case of `CC(=O)Oc1ccccc1C(=O)O` [aspirin, Acetylsalicylic Acid], the “LPS-induced translocation of c-Rel/p65” value with c-Rel/p65 was “inhibited the LPS-induced translocation of c-Rel/p65”. In the series with TF [1], the “LPS-induced increase in TF mRNA and protein level” value is recorded as “dose-dependently inhibited”. Moreover, the “increase in TF concentration compared to non-smoker mice (Western blotting)” value with TF [2] is 1.3±0.17 fold. Besides, in the series on TF [2] (smoker mice, 8 weeks), the TF immunoreactive area was 6.5±4.5%. The “TF staining area in plaque” value in the series on TF [3] (non-smokers) is on record as 2.0±2%. Further, the “TF staining area in plaque” value in the series with TF [3] (smokers) was 4.4±4%. Further, the cell migration result in the series on leukocytes [4] is “increased cell migration”. Also, the “migration of human lymphocytes” value in the series with human lymphocytes was “stimulated migration of human lymphocytes”. Further, the “increase of leukocyte migration relative to control values” with leukocytes [5] was 20-70%. Also, in the series with LDLR(−/−) mice, the “decrease in NF-κB binding activity in the aortas” value is 34%, the “decrease in the positive area for macrophages” value is on record as 57% and the “increase in the positive area for SMC” value is listed as 77%.

`CCOC(=O)[C@H](CCc1ccccc1)N[C@@H](C)C(=O)N1Cc2ccccc2C[C@H]1C(=O)O` [quinapril]: the “NF-κB activity in atherosclerotic vessels” value in the series with NF-κB [6] was “decreased the NF-κB activity”.

Regarding `CCOC(=O)[C@H](CCc1ccccc1)N[C@@H](C)C(=O)N1CCC[C@H]1C(=O)O` [enalapril], the entries for the “plasma TF antigen level” value with TF antigen (day 3) and in the series with TF antigen (day 28) were 205±14 and 169±13, respectively. Besides, on ACE [7], the “total lesion area compared to placebo” value was “no significant decrease in lesion area”. The “changes in mean absolute diameter, minimum absolute diameter, and percent diameter stenosis” value at ACE [8] is on record as “no significant difference”.

Take `C/C=C/C/C=C/CCC(=O)[C@H]1O[C@H]1C(N)=O` [cerulenin]: the virus production result in series [9] is “drastically decreased”; in the series with Rous sarcoma virus (RSV), “inhibited”.

Consider `CCOC(=O)[C@H](CCc1ccccc1)N[C@@H](C)C(=O)N1[C@H](C(=O)O)C[C@@H]2CCC[C@@H]21` [ramipril], for which the lesion area in the series on apoE(−/−) mice [10] was 6,679±978 μm^2. Besides, at ACE [11], the “changes in thickness of the common carotid artery wall, or carotid plaque height” value is reported as “no significant difference”. Besides, on ACE [12] (10 mg/day, average follow up 4.5 years), the “rate of death from cardiovascular causes” value is on record as 6.1%. For the same molecule, on ACE [12] (10 mg/day), the “rate of cardiac arrest” value is given as 0.8%, the “rate of complications related to diabetes” value was 6.4%, the “rate of death from any cause” value is reported as 10.4% and the “rate of heart failure” value is recorded as 9.1%. Also, on ACE [12] (10 mg/day), the “rate of myocardial infarction” value is 9.9%, the “rate of revascularization procedures” value is 16.3% and the rate of stroke was 3.4%. At ACE [12] (vs placebo), the “RR of cardiac arrest” value was 0.62, the “RR of complications related to diabetes” value is recorded as 0.84, the “RR of death from any cause” value was 0.84 and the “RR of death from cardiovascular causes” value is 0.74. At ACE [12] (vs placebo), the “RR of heart failure” value is 0.77, the “RR of myocardial infarction” value is listed as 0.80, the “RR of revascularization procedures” value is given as 0.85 and the RR of stroke is reported as 0.68. In addition, the “progression slope of the mean maximum carotid intimal medial thickness (IMT)” value on ACE [13] (10 mg/day, 4.5 years) is listed as 0.0137±0.0024 mm/year. Also, the “decrease of progression of carotid intima media thickness” value on ACE [13] (at 4.5 years) is listed as 0.008 mm per year.

Take `CCOC(=O)[C@H](CCc1ccccc1)N[C@H]1CS[C@H](c2cccs2)CN(CC(=O)O)C1=O` [temocapril]: the “TF mRNA in cardiac tissue” value in the series on TF mRNA is given as “attenuated the increase in TF mRNA”.

“angiotensin II (DRVYIHPF; Angiotensin-2; UniProt P01019 25-32, looked up)”: in the series with NF-κB [14], the NF-κB activation entry is given as “increased NF-κB activation”. Moreover, the “TF antigen and mRNA” value in the series on TF [15] is “dose-depended increase in TF antigen and mRNA”. Moreover, the velocity with neutrophils (concentration of 10^−11) is listed as 88 % of maximum velocity. Also, the “concentration of peak velocity” value with neutrophils (neutrophils) was 10^−10. Further, in the series on apoE(−/−) mice [16], the “development of AAA” value was “promotes the development of AAA” and the “rate of atherosclerotic lesion formation in the thoracic aorta” value was “increases the rate of atherosclerotic lesion formation”. For the same molecule, the lesion area in series [17] is recorded as 5,000 μm^2.

Consider `CCC(=O)O[C@]1(C(=O)SCF)[C@H](C)C[C@H]2[C@@H]3C[C@H](F)C4=CC(=O)C=C[C@]4(C)[C@@]3(F)[C@@H](O)C[C@@]21C` [FP, Fluticasone propionate], for which the NF-κB activation result in the series on NF-κB [18] is reported as “decreases NF-κB activation”. In addition, the “number of DC in asthma” value in the series with DC is “decreased the number of DC in asthma”. Moreover, the “number of antigen-presenting ‘Langerhans’ cells in nasal mucosa” value in series [19] is “decreased the number of the antigen-presenting ‘Langerhans’ cells”.
